The record followed here is patent US11696924B2, “Combination therapy using PDK1 and PI3K inhibitors” (MEMORIAL SLOAN-KETTERING CANCER CENTER, priority 2015, dated 2023).

Entries after “also recorded” stand apart in the source; their conditions may differ.

One assay has as its system mTORC1. The assay is described as follows: Western blot of mTORC1 signaling (pS6K, pS6, p4EBP1). It counts as cell-based. (In general: A western blot detects proteins with antibodies after separation by electrophoresis.)
A further assay has as its system HCC1954 cells. Briefly: apoptosis: PARP cleavage and caspase 3/7 activity. It counts as cell-based. The note with it: HCC1954 shPDK1, BYL719 1 μM, long term. From the text: For Caspase 3/7 activity, the Caspase-Glo® 3/7 Assay kit from Promega was used following manufacturer's instructions. The caspase inhibitor zVAD-fmk was used to inhibit apoptosis in cells and was also obtained from Promega.
Then, membranes were probed using specific antibodies.

In assay [1] the test system is PIK3CA-mutant breast cancer. Briefly: clinical trial NCT01870505, PIK3CA-mutant breast cancer. The note with it: with an aromatase inhibitor. The class given is in vivo, patients. The text has this:
We then explored whether SGK1 and pNDRG1 expression correlate with clinical outcome to PI3Kα inhibition by analyzing PIK3CA-mutant breast cancer samples from 18 patients treated with BYL719 in combination with an aromatase inhibitor (NCT01870505). Three of these tumors expressed high levels of SGK1 mRNA while the remaining 15 had medium/low levels of SGK1 mRNA. […] This was in agreement with the longer time to disease progression of this subset of patients when compared to the SGK1-high/pNDRG1-positive cohort (FIG. 4H, I).
The MSKCC Institutional Review Board approved the study. Pre-treatment FFPE blocks from patients treated with the PI3Kα inhibitor BYL719 enrolled in the clinical trial NCT01870505 conducted at MSKCC were used for IHC. Informed consent was obtained from all subjects.
For the study of patients treated with the PI3Kα inhibitor BYL719, pre-treatment biopsy FFPE blocks from patients enrolled in the clinical trial NCT01870505 conducted at MSKCC were used for IHC as described above. For the selection of the patients, PIK3CA and other tumor genomic drivers were analyzed using MSK-IMPACT (Cheng et al., 2015). […] SGK1 mRNA levels were determined using next-generation sequencing (NGS) and the expression results were presented as raw Reads Per Kilobase of transcript per Million mapped reads (RPKM). Mean and standard deviation (SD) was calculated across all the samples with available NGS data and overexpression of SGK1 was called for the samples with mRNA levels greater than mean+1SD. For 6 samples, RNA quality and quantity was not optimal for NGS. In these cases, SGK1 mRNA levels were determined using RT-qPCR as described above. RNA from low expressing (T47D) and high expressing (HCC1954) cell lines were used as positive control and absolute mRNA levels were quantified.

Text for mTORC1: For western blot analysis proteins were extracted in RIPA buffer supplemented with protease and phosphatase inhibitors (Roche). Protein lysates were separated using SDS-PAGE gels and transferred to a PVDF membrane. Then, membranes were probed using specific antibodies. PDK1, pAKT (S473), pAKT (T308), pS6K (T389), pS6 (S240/4), pS6 (235/6), p4EBP1 (S65), PARP, Actin, pRSK (S227), cleaved Caspase 3, pFOXO1/3 (T24/T32), SGK1, SGK2, SGK3, pNDRG1 (T346), NDRG1, Flag, HA, and phospho-RXRXX(S/T) (SEQ ID NO: 1) were from Cell Signaling Technology (CST).

`Cc1nc(NC(=O)N2CCC[C@H]2C(N)=O)sc1-c1ccnc(C(C)(C)C(F)(F)F)c1` [BYL719]: the mTORC1 signaling result in the assay with mTORC1 (BYL719-resistant cells (HCC1954, JIMT1), 4 h, BYL719 1 μM, GSK2334470 1 μM, SGK1-inh 10 μM) is “not downstream mTORC1 targets; also recorded: not mTORC1 signaling”; in the assay on mTORC1 (HCT116 PDPK1−/− cells), “inhibits mTORC1”; in the assay on mTORC1 (HCT116 parental cells), “does not decrease mTORC1 signaling”; with mTORC1 (MDA-MB-361 cells overexpressing SGK1, 1 μM, 4 h), “maintained mTORC1 signaling”. The “phosphorylation of mTORC1 downstream targets in PDK1 knockdown cells” value with mTORC1 (HCC1954 and JIMT1 shPDK1, BYL719 1 μM, 4 h) is “decreased the phosphorylation of the mTORC1 downstream targets”. Further, in the assay on mTORC1 (MDA-MB-361 parental cells, 1 μM, 4 h), the “AKT phosphorylation and mTORC1 signaling” value was “decreased both AKT phosphorylation and mTORC1 signaling”. For the same molecule, the “apoptosis markers in PDK1 knockdown cells” value in the assay with HCC1954 cells is “induced PARP cleavage (FIG. 2C) and increased caspase 3/7 activity”. Besides, in assay [1] (patients with pNDRG1-negative tumors), the “clinical response by RECIST” value is “three had partial responses and eight had stable disease”. Besides, the clinical response entry in assay [1] (three patients, tumors with high SGK1, pNDRG1 positive) is “did not respond to therapy”; in assay [1] (two patients, medium/low SGK1, pNDRG1 positive), “rapidly progressed”.
